Holding throughout (assay): NCI-60 cell line screen, 48 h
Assay [1] relates to M14 melanoma.
In assay [2] the test system is T-47D breast.
Assay [3] has as its system RPMI-8226 leukemia.
Assay [4] deals with EKVX NSCLC.
In assay [5] the test system is A498 renal.
Assay [6] concerns MALME-3M melanoma.
Assay [7] concerns UACC-257 melanoma.
The subject of assay [8] is SF-539 CNS.
Assay [9] deals with LOX IMVI melanoma.
The test system of assay [10] is OVCAR-8 ovarian.
Assay [11] deals with ACHN renal.
Assay [12] relates to NCI/ADR-RES ovarian.
For assay [13], the system named is BT-549 breast.
For assay [14], the system named is MCF7 breast.

Each structure is given as a SMILES string.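 Following 48 hours of exposure in 96-well plates, responses at five concentrations were used to interpolate endpoints linearly. Definition used: TGI = concentration required for complete inhibition of growth.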

With `Cc1cccc2c1CC(C1OC(=O)c3c(C)cccc31)C2=O` (stereo not given), the TGI in assay [1], in [2], in assay [3], in [4], in [5] and in assay [6] was > 100 µM throughout. Moreover, the TGI in assay [7], in [8], in [9], in assay [10], in assay [11] and in assay [12] was > 100 µM in each case. The TGI in [13] and in assay [14] was > 100 µM in each case.
Turning to `COc1ccc(/C=C/C(=N/NC(=O)N/N=C(/C=C/c2ccc(OC)cc2)C(C)C)C(C)C)cc1`, the TGI in assay [1], in assay [2], in assay [3], in assay [4], in [5] and in assay [6] was > 100 µM throughout. Besides, the TGI in [7], in assay [8], in assay [9], in assay [10], in assay [11] and in [12] was > 100 µM throughout. Moreover, the TGI in assay [13] and in [14] was > 100 µM in each case.
Consider `CCOc1cc(NC(C)=O)ccc1C(=O)NN1C(=O)C(Cl)C1c1ccc(O)c(OC)c1` (stereo not given), for which the TGI in assay [1] was found to be 28.1 µM; in assay [2], 30.8 µM; in assay [3] it was 40.5 µM; in assay [4] it was 31.5 µM; in assay [5], 28.4 µM; in assay [6], 22 µM. For the same molecule, the TGI worked out at 27 µM in [7]; 26.8 µM in assay [8]; 7.79 µM in [9]; 82.3 µM in assay [10]; 30.3 µM in assay [11]; 57.4 µM in assay [12]. Further, the results for the TGI in [13] and in assay [14] were 21.9 µM and 30.4 µM, respectively.
As to `CCOC(=O)Nn1cnnc1Cc1ccccc1`, the TGI in assay [1], in assay [2], in [3], in assay [4], in assay [5] and in assay [6] was > 100 µM in each case. Also, the TGI in [7], in [8], in assay [9], in assay [10], in assay [11] and in [12] was > 100 µM in each case. Further, the TGI in assay [13] and in assay [14] was > 100 µM in each case.
On to `COc1ccc(/C=C/C(=O)c2cccc(C(=O)/C=C/c3ccc(OC)c(OC)c3)n2)cc1OC`, for which the TGI in assay [1] is > 79.8 µM; in assay [2], > 100 µM; in [3], > 22.6 µM; in [4] it was > 100 µM; in [5] it was > 100 µM; in [6] it was 70.5 µM. The TGI in assay [7] was 99.4 µM; in assay [8], 38.4 µM; in assay [9], 10.6 µM; in assay [10], 18.3 µM; in assay [11], > 100 µM; in [12] it was > 86.8 µM. Moreover, the TGI is 44.9 µM in assay [13] and > 100 µM in assay [14].
Turning to `c1ccc2nc3c(nc2c1)sc1nc2ccccc2n13`, the TGI in assay [1], in assay [2], in assay [3], in assay [4], in [5] and in assay [6] was > 100 µM throughout. The TGI in [7], in [8], in assay [9], in assay [10], in [11] and in assay [12] was > 100 µM in each case. Besides, the TGI in [13] and in assay [14] was > 100 µM in each case.
With `COc1cc2c(cc1C)NC(=O)/C2=C\c1cccnc1`, the TGI in assay [1] is 77 µM; in [2] it was 11.7 µM; in assay [3] it was 55.5 µM; in assay [4], 52.9 µM; in assay [5], 26.1 µM; in assay [6], 30.2 µM. The TGI in assay [7] was 28.4 µM; in [8], 51.7 µM; in assay [9], > 100 µM; in assay [10], 72.6 µM; in assay [11], > 100 µM; in [12], 36.8 µM. Besides, the TGI in assay [13] was determined as 96.9 µM; in assay [14], 47.8 µM.
Take `COc1ccc2c(c1OC)C(Br)CCC(Br)(Br)C2=O` (stereo not given): the TGI came to 18.3 µM in assay [1]; 43 µM in assay [2]; 26.1 µM in [3]; 29.4 µM in [4]; 29.4 µM in [5]; 22.6 µM in assay [6]. Also, the TGI in [7] was 27.7 µM; in [8], 11.7 µM; in assay [9] it was 10.8 µM; in assay [10], 21.9 µM; in [11], 3.81 µM; in assay [12], 40.2 µM. For the same molecule, the TGI was 20.3 µM in assay [13] and 21.3 µM in [14].
For `CCOC(=O)NC(OCCN(C)C)(C(F)(F)F)C(F)(F)F`, the TGI in assay [1], in [2], in assay [3], in [4], in assay [5] and in [6] was > 100 µM each time. Moreover, the TGI in assay [7], in [8], in [9], in assay [10], in [11] and in assay [12] was > 100 µM throughout. Besides, the TGI in [13] and in assay [14] was > 100 µM throughout.
With `COc1ccc(-c2cc(-c3ccccc3)c3c(n2)-c2ccccc2NC(=O)C3)cc1`, the TGI in assay [1] was > 100 µM; in assay [2], > 100 µM; in assay [3], > 100 µM; in [4], > 100 µM; in assay [5], > 100 µM; in assay [6] it was 94.1 µM. Moreover, the TGI in [7] was > 100 µM; in assay [8], > 100 µM; in assay [9] it was > 100 µM; in assay [10], 30.1 µM; in assay [11] it was > 100 µM; in assay [12] it was > 100 µM. Also, the TGI in assay [13] and in assay [14] was > 100 µM in each case.

For the origin of these results see PubChem BioAssay (NCI).
